Laboratory results taken from patent US9776979B2, “EBI2 modulators” (Sanford-Burnham Medical Research Institute, priority 2013, dated 2017).

molecular target: EBI2 (Homo sapiens, UniProt P32249); assay: Cell-based luminescent assay (EBI2 modulation); conditions: cell-based luminescence; 7a,25-OHC final assay concentration 80 nM; 60 minutes incubation; read-out: IC50
Description: Cell-Based Luminescent Assay
To assess EBI2 modulation, the compounds described herein were assayed in the following cell-based luminescent assay:
1) Plated 600 cells/well in 4 uL of assay media into columns 1-48 of a 1536-well assay plate, using a liquid dispenser.
2) Centrifuged plates at 1000 rpm for 1 minute and covered with lids.
3) Incubated overnight at 37° C., 100% relative humidity, 5% CO2.
1) Centrifuged compound plates containing compounds described herein at 500 rpm for 1 minute.
2) Added compounds into assay plate col 5-48 to final concentration 4-5 uM. Added matching amount of DMSO to positive and negative control wells in columns 1-4.
3) Dispensed 2 ul/well of assay media to columns 1-2 for the positive control wells.
4) Added 2 ul/well of 400 nM 7a,25-OHC (final assay concentration=80 nM) in assay media to columns 3-48 for the negative control and test compound wells.
5) Centrifuged plates at 1000 rpm for 1 minute and re-lid plates.
6) Incubated plates at 37° C., 100% relative humidity, 5% CO2 for 60 minutes.
7) Following 60 minute incubation, delivered 2.5 uL of Detection Reagent solution to each assay plate (Columns 1-48) using a liquid handler.
8) Centrifuged plates at 2000 rpm for 2 minutes and re-lid plates.
9) Incubated plates for 60 minutes at 25 degrees in the dark.
10) Read plates using the Viewlux, Envision or other suitable plate reader using a luminescence detection.
The experimental values were normalized by the difference between values from neutral and stimulator control wells in each plate. Then normalized data was corrected to remove systematic plate patterns due to artifacts such as dispensing tip issues etc.

Sequence of EBI2 (P32249 whole entry): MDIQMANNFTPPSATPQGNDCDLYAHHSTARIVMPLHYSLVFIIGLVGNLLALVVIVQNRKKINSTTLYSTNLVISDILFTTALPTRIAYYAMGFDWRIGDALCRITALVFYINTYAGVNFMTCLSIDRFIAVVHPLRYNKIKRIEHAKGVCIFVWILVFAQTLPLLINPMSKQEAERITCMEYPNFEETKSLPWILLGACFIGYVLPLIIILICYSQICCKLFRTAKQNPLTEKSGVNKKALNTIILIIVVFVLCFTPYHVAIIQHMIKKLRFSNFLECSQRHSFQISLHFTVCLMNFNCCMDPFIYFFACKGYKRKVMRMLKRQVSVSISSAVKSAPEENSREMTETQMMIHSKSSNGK

SMILES | IC50
COc1ccc(/C=C/C(=O)N2CCN(C(c3ccccc3)c3ccccc3)CC2)cc1 [Compound C17, (2E)-1-[4-(diphenylmethyl)piperazinyl]-3-(4-methoxyphenyl)prop-2-en-1-one] | < 100 nM
O=C(/C=C/c1ccc(Cl)c(Cl)c1)N1CCN(C(=O)c2ccc(F)cc2)CC1 [Compound C20, (2E)-3-(3,4-dichlorophenyl)-1-{4-[(4-fluorophenyl)carbonyl]piperazinyl}prop-2-en-1-one] | < 100 nM
CCOc1ccc(/C=C/C(=O)N2CCN(C(c3ccccc3)c3ccccc3)CC2)cc1 [Compound C21, (2E)-1-[4-(diphenylmethyl)piperazinyl]-3-(4-ethoxyphenyl)prop-2-en-1-one] | < 100 nM
O=C(/C=C/c1ccc(F)cc1)N1CCN(S(=O)(=O)C2=Cc3ccccc3CC2)CC1 [Compound C22, (2E)-1-[4-(2-3,4-dihydronaphthylsulfonyl)piperazinyl]-3-(4-fluorophenyl)prop-2-en-1-one] | < 100 nM
O=C(/C=C/c1ccc(Cl)c(Cl)c1)N1CCN(C(=O)c2ccc(Cl)cc2)CC1 [Compound C23, (2E)-3-(3,4-dichlorophenyl)-1-{4-[(4-chlorophenyl)carbonyl]piperazinyl}prop-2-en-1-one] | < 100 nM
O=C(/C=C/c1ccc(C(F)(F)F)cc1)N1CCN(C(c2ccccc2)c2ccccc2)CC1 [Compound C29, (2E)-1-[4-(diphenylmethyl)piperazinyl]-3-[4-(trifluoromethyl)phenyl]prop-2-en-1-one] | < 100 nM
O=C(/C=C/c1ccc(Br)cc1)N1CCN(Cc2cc(F)cc(F)c2)CC1 [Compound C31, (2E)-1-{4-[(3,5-difluorophenyl)methyl]piperazinyl}-3-(4-bromophenyl)prop-2-en-1-one] | < 100 nM
Cc1cc(CN2CCN(C(=O)/C=C/c3ccc(Br)cc3)CC2)ccc1F [Compound C32, (2E)-3-(4-bromophenyl)-1-{4-[(4-fluoro-3-methylphenyl)methyl]piperazinyl}prop-2-en-1-one] | < 100 nM
O=C(/C=C/c1ccc(Br)cc1)N1CCN(S(=O)(=O)c2ccc(Br)cc2)CC1 [Compound C37, (2E)-3-(4-bromophenyl)-1-{4-[(4-bromophenyl)sulfonyl]piperazinyl}prop-2-en-1-one] | < 100 nM
O=C(/C=C/c1ccc(Br)cc1)N1CCN(Cc2ccc(Cl)c(Cl)c2)CC1 [Compound C39, (2E)-1-{4-[(3,4-dichlorophenyl)methyl]piperazinyl}-3-(4-bromophenyl)prop-2-en-1-one] | < 100 nM
O=C(/C=C/c1ccc(Cl)cc1F)N1CCN(C(c2ccccc2)c2ccccc2)CC1 [Compound C40] | < 100 nM
Cc1ccc(CN2CCN(C(=O)/C=C/c3ccc(Br)cc3)CC2)cc1 [Compound C41, (2E)-3-(4-bromophenyl)-1-{4-[(4-methylphenyl)methyl]piperazinyl}prop-2-en-1-one] | < 100 nM
O=C(/C=C/c1ccccc1)N1CCN(C(c2ccccc2)c2ccccc2)CC1 [Compound C42, (2E)-1-[4-(diphenylmethyl)piperazinyl]-3-phenylprop-2-en-1-one] | < 100 nM
O=C(/C=C/c1ccc(Br)cc1)N1CCN(C(=O)c2ccc(C(F)(F)F)cc2)CC1 [Compound C44, (2E)-3-(4-bromophenyl)-1-(4-{[4-(trifluoromethyl)phenyl]carbonyl}piperazinyl)prop-2-en-1-one] | < 100 nM
O=C(c1cc2ccc(Cl)cc2s1)N1CCN(C(c2ccccc2)c2ccccc2)CC1 [Compound C45, 4-(diphenylmethyl)piperazinyl 6-chlorobenzo[b]thiophen-2-yl ketone] | < 100 nM
Cc1ccc2[nH]c(C(=O)N3CCN(S(=O)(=O)/C=C/c4ccccc4)CC3)cc2c1 [Compound C48, 4-[((1E)-2-phenylvinyl)sulfonyl]piperazinyl 5-methylindol-2-yl ketone] | < 100 nM
CCCCN1CCN(C(=O)/C=C/c2ccc(Br)cc2)CC1 [Compound C49, (2E)-3-(4-bromophenyl)-1-(4-butylpiperazinyl)prop-2-en-1-one] | < 100 nM
CC(C)CN1CCN(C(=O)/C=C/c2ccc(Br)cc2)CC1 [Compound C52, (2E)-3-(4-bromophenyl)-1-[4-(methylpropyl)piperazinyl]prop-2-en-1-one] | < 100 nM
O=C(c1cc2cc(Cl)ccc2[nH]1)N1CCN(C(c2ccccc2)c2ccccc2)CC1 [Compound C56, 4-(diphenylmethyl)piperazinyl 5-chloroindol-2-yl ketone] | < 100 nM
Cc1ccc2[nH]c(C(=O)N3CCN(S(=O)(=O)CCc4ccccc4)CC3)cc2c1 [Compound C57, 5-methylindol-2-yl 4-[(2-phenylethyl)sulfonyl]piperazinyl ketone] | < 100 nM
Cc1ccc(C#CC(=O)N2CCN(C(c3ccccc3)c3ccccc3)CC2)cc1 [Compound C58, 1-[4-(diphenylmethyl)piperazinyl]-3-(4-methylphenyl)prop-2-yn-1-one] | < 100 nM
COC(=O)c1ccc(C(=O)N2CCN(C(=O)c3cc4cc(Cl)ccc4[nH]3)CC2)cc1 [Compound C62, methyl 4-({4-[(5-chloroindol-2-yl)carbonyl]piperazinyl}carbonyl)benzoate] | < 100 nM
O=C(/C=C/c1ccc([N+](=O)[O-])cc1)N1CCN(C(c2ccccc2)c2ccccc2)CC1 [Compound C63, (2E)-1-[4-(diphenylmethyl)piperazinyl]-3-(4-nitrophenyl)prop-2-en-1-one] | < 100 nM
O=C(C#Cc1ccccc1)N1CCN(C(=O)c2ccc(Br)cc2)CC1 [Compound C65, 1-{4-[(4-bromophenyl)carbonyl]piperazinyl}-3-phenylprop-2-yn-1-one] | < 100 nM
O=C(C#Cc1ccc(C(F)(F)F)cc1)N1CCN(C(c2ccccc2)c2ccccc2)CC1 [Compound C66, 1-[4-(diphenylmethyl)piperazinyl]-3-[4-(trifluoromethyl)phenyl]prop-2-yn-1-one] | < 100 nM
O=C(/C=C/c1ccc(F)cc1)N1CCN(C(c2ccccc2)c2ccccc2)CC1 [Compound C68, (2E)-1-[4-(diphenylmethyl)piperazinyl]-3-(4-fluorophenyl)prop-2-en-1-one] | < 100 nM
O=C(c1cc2ccccc2[nH]1)N1CCN(C(c2ccccc2)c2ccccc2)CC1 [Compound C71, 4-(diphenylmethyl)piperazinyl indol-2-yl ketone] | < 100 nM

Further lines, results first:

IC50 | SMILES
< 100 nM | O=C(C#Cc1cccc(Cl)c1Cl)N1CCN(C(=O)c2ccc(F)cc2)CC1 [Compound C18, 3-(2,3-dichlorophenyl)-1-{4-[(4-fluorophenyl)carbonyl]piperazinyl}prop-2-yn-1-one]
< 100 nM | O=C(C#Cc1ccc(Cl)cc1)N1CCN(C(=O)c2ccc(F)cc2)CC1 [Compound C28, 3-(4-chlorophenyl)-1-{4-[(4-fluorophenyl)carbonyl]piperazinyl}prop-2-yn-1-one]
< 100 nM | Cc1ccc(C#CC(=O)N2CCN(C(=O)c3ccc(Cl)cc3)CC2)cc1 [Compound C33, 1-{4-[(4-chlorophenyl)carbonyl]piperazinyl}-3-(4-methylphenyl)prop-2-yn-1-one]
< 100 nM | O=C(C#Cc1cccc(Cl)c1)N1CCN(C(=O)c2ccc(Cl)cc2)CC1 [Compound C34, 3-(3-chlorophenyl)-1-{4-[(4-chlorophenyl)carbonyl]piperazinyl}prop-2-yn-1-one]
< 100 nM | O=C(C#Cc1cccc(Cl)c1)N1CCN(C(=O)c2ccc(F)cc2)CC1 [Compound C35, 3-(3-chlorophenyl)-1-{4-[(4-fluorophenyl)carbonyl]piperazinyl}prop-2-yn-1-one]
< 100 nM | Cc1ccc(C#CC(=O)N2CCN(C(=O)c3ccc(F)cc3)CC2)cc1 [Compound C38, 1-{4-[(4-fluorophenyl)carbonyl]piperazinyl}-3-(4-methylphenyl)prop-2-yn-1-one]
< 100 nM | Cc1ccc(C#CC(=O)N2CCN(C(=O)c3ccc(C(F)(F)F)cc3)CC2)cc1 [Compound C53, 3-(4-methylphenyl)-1-(4-{[4-(trifluoromethyl)phenyl]carbonyl}piperazinyl)prop-2-yn-1-one]
< 100 nM | COc1ccc(C(=O)N2CCN(C(=O)C#Cc3cccc(Cl)c3)CC2)cc1 [Compound C59, 3-(3-chlorophenyl)-1-{4-[(4-methoxyphenyl)carbonyl]piperazinyl}prop-2-yn-1-one]
< 100 nM | O=C(C#Cc1ccc(C(F)(F)F)cc1)N1CCN(C(=O)c2ccc(Cl)cc2)CC1 [Compound C60, 1-{4-[(4-chlorophenyl)carbonyl]piperazinyl}-3-[4-(trifluoromethyl)phenyl]prop-2-yn-1-one]
< 100 nM | O=C(C#Cc1ccc(Br)cc1)N1CCN(C(=O)c2ccc(Br)cc2)CC1 [Compound C61, 3-(4-bromophenyl)-1-{4-[(4-bromophenyl)carbonyl]piperazinyl}prop-2-yn-1-one]
< 100 nM | O=C(C#Cc1ccc(F)cc1)N1CCN(C(=O)c2ccc(Cl)cc2)CC1 [Compound C69, 1-{4-[(4-chlorophenyl)carbonyl]piperazinyl}-3-(4-fluorophenyl)prop-2-yn-1-one]
< 100 nM | O=C(C#Cc1ccc(Br)cc1)N1CCN(C(=O)c2ccc(F)cc2)CC1 [Compound C70, 3-(4-bromophenyl)-1-{4-[(4-fluorophenyl)carbonyl]piperazinyl}prop-2-yn-1-one]
